Test [1] deals with Ba/F3_L858R/T790M/C797S cells. The experiment in a line: Ba/F3_L858R/T790M/C797S cell proliferation inhibition assay (CellTiter-Glo). The format is cell-based. The note with it: Mus musculus, BaF3; cell proliferation, 72 h, CellTiter-Glo; read-out: Ba/F3 (L858R/T790M/C797S) IC50. The procedure: Ba/F3_L858R/T790M/C797S Cell Proliferation Inhibition Assay
In the assay, the inhibition effect of the compounds on the proliferation of Ba/F3_L858R/T790M/C797S cells was tested by adopting a CellTiter-Glo method, and the concentration IC50 of the compound for inhibiting half maximal growth of cells was obtained.
Ba/F3_L858R/T790M/C797S cells were constructed by Pharmaron Beijing Co., Ltd.
1640 medium, fetal bovine serum (FBS), Penicillin-Streptomyces, and GlutaMAX-I Supplement, purchased from GIBCO.
(§1) Brigatinib, purchased from Selleck.
(§2) CellTiter-Glo reagent, purchased from Promega.
1) Ba/F3_L858R/T790M/C797S cells were seeded in a 384-well plate at a density of 700 cells/well with 30 μL/well.
(§3) 2) Day 0: […] of gradiently-diluted compounds to be tested with a final concentration of DMSO of 0.1% was added to plate using Echo, and the plate was incubated in a cell incubator for 72 h (37° C., 5% CO2). […] of DMSO was added into each well in blank control group.
(§4) 3) Day 3: 30 μL Cell Titer-Glo reagent was added to each well, and the plate was in the dark under room temperature for 30 min.
(§5) 4) The chemiluminescent signal was detected by an Envision plate reader (PerkinElmer).
(§6) 5) Data analysis was performed using GraphPad Prism software to give the IC50 for compounds.
On the technique in general: In ATP-based viability assays light output follows the ATP content of the culture.

The subject of a further test is A431 cells (EGFR WT). The experiment in a line: A431 cell proliferation inhibition assay (CellTiter-Glo). The format is cell-based. The note with it: Homo sapiens, A-431; cell proliferation, 72 h, CellTiter-Glo; read-out: A431 EGFR WT IC50. The procedure: A431 Cell Proliferation Inhibition Assay
In the assay, the inhibition effect of the compounds on the proliferation of A431 cells was tested by adopting a CellTiter-Glo method, and the concentration IC50 of the compound for inhibiting half maximal growth of cells was obtained.
A431 cells, purchased from ATCC.
DMEM medium, fetal bovine serum (FBS), and Penicillin-Streptomycin, purchased from GIBCO.
as §1, §2
1) A431 cells were seeded in a 384-well plate at a density of 800 cells/well with 30 μL/well, and the plate was cultured in a cell incubator for 24 h (37° C., 5% CO2).
as §3, §4, §5, §6

Test [2] concerns Ba/F3_Del19/T790M/C797S cells. Nature of the test: Ba/F3_Del19/T790M/C797S cell proliferation inhibition assay (CellTiter-Glo). It counts as cell-based. To be noted: Mus musculus, BaF3; cell proliferation, 72 h, CellTiter-Glo; read-out: Ba/F3 (Del19/T790M/C797S) IC50. The procedure: Ba/F3_Del19/T790M/C797S Cell Proliferation Inhibition Assay
In the assay, the inhibition effect of the compounds on the proliferation of Ba/F3_Del19/T790M/C797S cells was tested by adopting a CellTiter-Glo method, and the concentration IC50 of the compound for inhibiting half maximal growth of cells was obtained.
Ba/F3_Del19/T790M/C797S, purchased from Kyinno Biotechnology Co., Ltd. 1640 medium, fetal bovine serum (FBS), Penicillin-Streptomyces, and GlutaMAX-I Supplement, purchased from GIBCO.
as §1, §2
1) Ba/F3_Del19/T790M/C797S cells were seeded in a 384-well plate at a density of 700 cells/well with 30 μL/well.
as §3, §4, §5
Data analysis was performed using GraphPad Prism 6 software to give the IC50 for compounds.

A further test has as its target EGFR WT (wild type EGFR) (Homo sapiens (Human), UniProt P00533). The experiment in a line: In vitro enzymatic TR-FRET (HTRF KinEASE-TK) kinase assay, EGFR WT. To be noted: kinase activity, TR-FRET; read-out: EGFR (WT) IC50. The format is biochemical. The method, then: (I) In Vitro Enzymatic Experiment for EGFR WT and EGFR L858R/T790M/C797S
In the assay, the inhibition effect of the compound on the kinase activity of EGFR WT (wild type EGFR) and EGFR L858R/T790M/C797S was tested by adopting a time-resolved fluorescence resonance energy transfer (TR-FRET) method, and half maximal inhibitory concentration IC50 of the compound on the kinase activity of EGFR was obtained.
EGFR recombinase and EGFR L858R/T790M/C797S recombinase, purchased from Signalchem.
HTRF KinEASE-TK kit, purchased from Cisbio.
DTT, MnCl2, and MgCl2, purchased from Sigma.
ATP, purchased from Promega.
as §1
1) 1× working solution was prepared: 5 mM MgCl2; 1 mM DTT; 1 mM MnCl2 and 1× kinase buffer (in kit).
2) […] of gradiently-diluted compound was transferred to a 384-well plate using Echo 550 (Labcyte).
3) 5 μL of 2× EGFR WT or EGFR L858R/T790M/C797S recombinase solution was added to the 384-well plate, and the plate was incubated at room temperature for 10 min.
4) 5 μL of 2× TK-substrate-biotin substrate solution (containing ATP) was added to the 384-well plate, and the plate was incubated at room temperature for 40 min.
5) 5 μL of assay solution containing Sa-XL 665 HTRF and 5 μL of TK-antibody-Cryptatewas were added to the plate, and the plate was incubated at room temperature for 1 h.
6) The fluorescence signal values at 615 nm and 665 nm were measured for each well using an Envision microplate reader (PerkinElmer).
7) The ratio of fluorescence signal values at 665 nm and 615 nm was calculated for each well.
8) Data analysis was performed using GraphPad Prism software to give the IC50 for compounds.

EGFR WT (wild type EGFR), sequence (P00533 25-1210): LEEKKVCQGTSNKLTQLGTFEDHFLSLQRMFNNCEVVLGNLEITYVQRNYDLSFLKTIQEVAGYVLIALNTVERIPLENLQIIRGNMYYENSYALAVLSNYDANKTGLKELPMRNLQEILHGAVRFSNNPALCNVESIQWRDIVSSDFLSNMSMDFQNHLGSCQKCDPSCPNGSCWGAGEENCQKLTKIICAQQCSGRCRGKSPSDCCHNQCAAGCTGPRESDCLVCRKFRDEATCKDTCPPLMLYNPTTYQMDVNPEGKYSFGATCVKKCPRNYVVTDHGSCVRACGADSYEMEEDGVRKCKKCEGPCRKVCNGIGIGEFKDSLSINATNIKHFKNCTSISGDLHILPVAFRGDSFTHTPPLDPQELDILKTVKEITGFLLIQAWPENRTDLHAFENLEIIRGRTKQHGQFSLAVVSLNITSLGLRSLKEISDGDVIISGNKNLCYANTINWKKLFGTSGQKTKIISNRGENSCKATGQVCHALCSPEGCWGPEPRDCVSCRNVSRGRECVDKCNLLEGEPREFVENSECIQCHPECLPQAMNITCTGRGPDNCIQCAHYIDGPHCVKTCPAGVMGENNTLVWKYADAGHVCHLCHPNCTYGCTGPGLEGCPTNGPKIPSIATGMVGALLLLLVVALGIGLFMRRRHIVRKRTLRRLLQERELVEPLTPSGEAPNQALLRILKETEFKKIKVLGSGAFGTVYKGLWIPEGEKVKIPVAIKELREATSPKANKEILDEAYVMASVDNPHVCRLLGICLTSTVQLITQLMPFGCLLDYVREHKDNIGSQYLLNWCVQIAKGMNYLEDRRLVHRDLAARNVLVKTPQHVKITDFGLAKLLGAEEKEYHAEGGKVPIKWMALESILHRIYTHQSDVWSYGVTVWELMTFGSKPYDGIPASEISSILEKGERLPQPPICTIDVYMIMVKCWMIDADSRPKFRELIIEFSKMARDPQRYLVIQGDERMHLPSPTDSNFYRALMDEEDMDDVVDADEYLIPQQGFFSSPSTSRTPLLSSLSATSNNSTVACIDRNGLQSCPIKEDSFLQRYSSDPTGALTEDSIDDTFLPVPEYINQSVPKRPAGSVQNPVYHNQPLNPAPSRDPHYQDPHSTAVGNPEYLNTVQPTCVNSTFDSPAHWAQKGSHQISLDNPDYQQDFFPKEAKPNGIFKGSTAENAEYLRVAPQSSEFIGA

`COc1cc2c(cc1Nc1ncc(Br)c(Nc3ccccc3P(C)(C)=O)n1)-c1cnn(C)c1CCN2C1CCN(C)CC1` [Compound 47]: the IC50 was 0.01 to 0.05 µM in test [1], 0.05 to 0.1 µM with A431 cells (EGFR WT), < 0.01 µM in test [2] and 0.001 to 0.01 µM at EGFR WT (wild type EGFR).
In the case of `COc1cc2c(cc1Nc1ncc(Cl)c(Nc3ccccc3P(C)(C)=O)n1)-c1cnn(C)c1CCN2C` [Compound 14], the IC50 in test [1] was < 0.01 µM; in the test with A431 cells (EGFR WT), 0.1 to 1 µM; in test [2], < 0.01 µM; at EGFR WT (wild type EGFR), 0.001 to 0.01 µM.
For the compound `COc1cc2c(cc1Nc1ncc(Br)c(Nc3ccc(F)cc3P(C)(C)=O)n1)-c1cnn(C)c1CCN2C` [Compound 43], the IC50 in test [1] is < 0.01 µM; in the test on A431 cells (EGFR WT), 0.05 to 0.1 µM; in test [2], < 0.01 µM; on EGFR WT (wild type EGFR) it was 0.001 to 0.01 µM.
Consider `COc1cc2c(cc1Nc1ncc(Br)c(Nc3ccc4nccnc4c3N(C)S(C)(=O)=O)n1)-c1cnn(C)c1CCN2C1CCOCC1` [Compound 138], for which the IC50 in test [1] was < 0.01 µM; in the test on A431 cells (EGFR WT), 0.1 to 1 µM; in test [2], < 0.01 µM; on EGFR WT (wild type EGFR) it was 0.001 to 0.01 µM.
In the case of `COc1cc2c(cc1Nc1ncc(Cl)c(Nc3ccncc3P(C)(C)=O)n1)-c1cnn(C)c1CCN2C(C)C` [Compound 95], the IC50 lay in the range of 0.05 to 0.1 µM in test [1], 0.1 to 1 µM in the test with A431 cells (EGFR WT), 0.01 to 0.05 µM in test [2] and 0.001 to 0.01 µM at EGFR WT (wild type EGFR).
Taken in the same sequence, the figures for `COc1nc2c(cc1Nc1ncc(Br)c(Nc3ccccc3P(C)(C)=O)n1)-c1cnn(C)c1CCN2` [Compound 51] were 0.01 to 0.05 µM, 0.1 to 1 µM, < 0.01 µM and 0.01 to 0.05 µM.
Taken in the same sequence, the figures for `COc1cc2c(cc1Nc1ncc(Br)c(Nc3ccccc3P(C)(C)=O)n1)-c1cnn(C)c1CCN2C1CCOCC1` [Compound 87] were < 0.01 µM, 0.1 to 1 µM, < 0.01 µM and 0.001 to 0.01 µM.
The corresponding values for `COc1cc2c(cc1Nc1ncc(C(F)(F)F)c(Nc3ccccc3P(C)(C)=O)n1)-c1cnn(C)c1CCN2C` [Compound 26] are < 0.01 µM, 0.1 to 1 µM, < 0.01 µM and 0.01 to 0.05 µM.
Take `COc1cc2c(cc1Nc1ncc(Br)c(Nc3ccc4nccnc4c3P(C)(C)=O)n1)-c1cnn(C)c1CC(O)C2` (stereo not drawn) [Compound 31]: the IC50 is 0.01 to 0.05 µM in test [1], 0.1 to 1 µM with A431 cells (EGFR WT), < 0.01 µM in test [2] and 0.001 to 0.01 µM on EGFR WT (wild type EGFR).
On to `COc1cc2c(cc1Nc1ncc(Br)c(Nc3ccccc3N(C)S(=O)(=O)C3CC3)n1)-c1cnn(C)c1CCN2C` [Compound 3], for which the IC50 was < 0.01 µM in test [1], 0.1 to 1 µM in the test with A431 cells (EGFR WT), < 0.01 µM in test [2] and 0.001 to 0.01 µM at EGFR WT (wild type EGFR).
For the compound `COc1cc2c(cc1Nc1ncc(Br)c(Nc3ccc4nccnc4c3P(C)(C)=O)n1)-c1cnn(C)c1CCO2` [Compound 33], the IC50 is < 0.01 µM in test [1], 0.05 to 0.1 µM in the test on A431 cells (EGFR WT), < 0.01 µM in test [2] and 0.001 to 0.01 µM at EGFR WT (wild type EGFR).
In the case of `COc1nc2c(cc1Nc1ncc(Br)c(Nc3ccc4nccnc4c3P(C)(C)=O)n1)-c1cnn(C)c1CCN2` [Compound 52], the IC50 in test [1] was < 0.01 µM; in the test on A431 cells (EGFR WT) it was 0.1 to 1 µM; in test [2], < 0.01 µM; at EGFR WT (wild type EGFR), 0.001 to 0.01 µM.

Source of the values: US20240034743A9, “TRICYCLIC COMPOUNDS AS EGFR INHIBITORS” (QILU PHARMACEUTICAL CO., LTD., priority 2020, published 2024).
